# Measurements as given in patent US5182258A, “Systemic delivery of polypeptides through the eye” (Orbon Corporation, priority 1989, dated 1993).
# Key:
# [1] = for effect of peptidase inhibitors on systemic absorption of TRH: 4 mM, Bestatin, 60 uM, D,L-Thiorphan, 0.6 uM, ocular TRH
# [2] = Absorption of insulin into systemic circulation via the eyes or i.v. (125I blood level); assay type: in vivo, rabbit; details: ocular insulin plus leucine-leucine
# [3] = Enkephalin-equivalent remaining in eye tissues at the end of 12 hr experiment
# [4] = Blood enkephalin-equivalent concentration after ocular or i.v. enkephalin
smiles,measurement,setting,value
"O=C(O)CNC(=O)C(CS)Cc1ccccc1 (racemic) [D,L-Thiorphan, D,L-thiorphan]",effect of peptidase inhibitors on systemic absorption of TRH,[1]; Leu-Leu,did not significantly enhance the systemic absorption of TRH
"CC(C)C[C@H](NC(=O)CNC(=O)[C@H](Cc1ccc(O)cc1)NC(=O)[C@H](CO)NC(=O)[C@H](Cc1c[nH]c2ccccc12)NC(=O)[C@H](Cc1cnc[nH]1)NC(=O)[C@@H]1CCC(=O)N1)C(=O)N[C@@H](CCCNC(=N)N)C(=O)N1CCC[C@H]1C(=O)NCC(N)=O [LHRH, luteinizing hormone-releasing hormone]",eye drop concentration sufficient to reach therapeutic effective blood concentration,"[1]; rabbit, in vivo",0.005%
"CC(C)C[C@H](NC(=O)[C@@H](N)CC(C)C)C(=O)O [Leu-Leu, leucine-leucine]",effect of peptidase inhibitors on systemic absorption of TRH,[1]; Leu-Leu,did not significantly enhance the systemic absorption of TRH
same,effect of peptidase inhibitor on systemic absorption of LHRH,"[1]; Leu-Leu, 5 mM, ocular LHRH",did increase the systemic absorption of LHRH significantly
same,effect of peptidase inhibitor on systemic absorption of glucagon,"[1]; Leu-Leu, 5 mM, ocular glucagon",did not increase the systemic absorption of glucagon
same,effect of added peptidase inhibitor on insulin absorption,[2],did not significantly improve insulin absorption
"NC(=O)[C@@H]1CCCN1C(=O)[C@H](Cc1cnc[nH]1)NC(=O)[C@@H]1CCC(=O)N1 [TRH, Thyrotrophin-releasing hormone]",eye drop concentration giving a therapeutic blood concentration,"[1]; rabbit, in vivo",≥ 0.0025%
same,peak blood TRH concentration,"[1]; rabbit, in vivo",138 ng/mL
same,steady state blood TRH concentration after the peak,"[1]; rabbit, in vivo",60 ng/mL
same,time from the peak to steady state,"[1]; rabbit, in vivo",9 h
same,time to peak,"[1]; rabbit, in vivo",60 min
"CC(C)C[C@H](NC(=O)[C@H](Cc1ccccc1)NC(=O)CNC(=O)CNC(=O)[C@@H](N)Cc1ccc(O)cc1)C(=O)O [enkephalin, Leucine-enkephalin (5-L-leucine)]",actual concentration of enkephalin in the lens compared with other tissues,[3],lowest among all tissues
same,Tx of decline of blood concentration,[4]; 50 ug i.v.,less than 30 min
same,lowest point of blood concentration,"[4]; 50 ug i.v., in 5 hrs",22 ng/mL
same,plateau blood enkephalin concentration,[4]; 1% enkephalin instilled into eye,72 ng/mL
same,plateau blood enkephalin concentration,[4]; 5% enkephalin instilled into eye,233 ng/mL
